The record followed here is patent publication US7858332B2, “Chemoprevention of endometrial cancer” (The Brigham and Women's Hospital, Inc., priority 2006, dated 2010).

This test deals with PTEN-null endometrial glands (latent endometrial precancers). The test can be described thus: Latent precancers (PTEN-null glands by immunohistochemistry) in paired endometrial biopsies before and after progestin therapy. In kind it is in vivo, women. Conditions: pre versus post therapy. How it is done:
Women in Northern Norway (Tromso region) with successive endometrial biopsies taken under different hormonal conditions form the three main experimental groups of this study. Clinical aspects of these patients have been published elsewhere (Vereide, et al., Gynecol Oncol 91:526-33 (2003)), but will be summarized here. […] Just under half (10 of 22 reported in results) received low dose hormonal replacement therapy as follows: norestrin 1 mg/estradiol 2mg daily (6 patients), estriol 1-2mg daily (3 patients), tibolone 2.5 mg daily (1 patient), no therapy (12 patients). All patient materials were compiled from existing pathologic tissues generated as part of routine patient care (“discarded materials”), except for the P-IUD group, which was consented in advance. […]
Paraffin sections of endometrial biopsy and curetting specimens were rehydrated, and underwent antigen retrieval by microwave before overnight (4° C.) incubation with 1:300 murine monoclonal anti-PTEN antibody 6h2.1 (Cascade Biosciences, Winchester, Mass.) as previously described (Mutter, et al, Cancer Res 61:43114 (2001)). Slides were washed, and incubated with appropriate secondary biotinylated immunoglobulin (Vectastain ABC kit, Vector Laboratories, Inc., Burlingame, Calif.) and signal detected by sequential addition of avidin peroxidase and 3,3′-diaminobenzidine. […]

As for `CC(=O)[C@@]1(O)CC[C@H]2[C@@H]3C[C@H](C)C4=CC(=O)CC[C@]4(C)[C@H]3CC[C@@]21C` [p-cycle, medroxyprogesterone], the “Change of latent precancers after therapy (in words)” value is listed as “non-significant changes”.
